Measured values: US20040086536A1, “Therapeutic agents and treatment kits for hypertrophic pyloric stenosis” (priority 2002, published 2004)
Where a name gives a salt, the structure may show the parent alone.

How the values were obtained:
[1] = tested on: hypertrophic pyloric stenosis; settings: cited from earlier work
[2] = tested on: hypertrophic pyloric stenosis; assay: Treatment of infantile patients with hypertrophic pyloric stenosis (disappearance of vomiting, hospitalization); settings: atropine sulfate 0.1 mg/kg/day iv.
Procedure: In the present treating examples, a solution for intravenous injection of atropine sulfate was used as the anticholinergic agent and a nitroglycerin patch was used as the NO donor.
After confirming that the pH and electrolytes in the blood restore in the normal ranges in individual infantile patients, a daily dosage of atropine sulfate (0.1 mg/kg/day) was divided by the number of milk feeding and the divided dosage of atropine sulfate was administered intravenously 10 minutes before each milk feeding over 3 minutes or longer. Except in the cases where abnormally strong side effects were produced, the dosage amounts for subsequent intravenous injections were not changed principally. […] The minimum dosage amount is 0.04 mg/kg/day.
In parallel with the atropine sulfate intravenous injection, a nitroglycerin transdermal patch (Millisrol Tape (registered trademark)): 5 mg/patch: Nippon Kayaku Co., Ltd.; or Minitro Tape (registered trademark): 5 mg/patch: Nisshin-Kyorin Pharmaceutical Co., Ltd.) was used. […]
To prevent the occurrence of aspiration pneumonia induced by vomiting and the induction of contraction of gastric smooth muscles and pyloric sphincters, isotonic drinking solution was fed orally as the infantile patient wanted until the vomiting subsided. […] The body weight and the daily amount of milk intake were measured every day. […]

Structure (SMILES): CN1[C@@H]2CC[C@H]1C[C@@H](OC(=O)C(CO)c1ccccc1)C2 (some centres unmarked) [atropine sulfate (iv.), atropine sulfate]
- time for which the spasm disappears after the administration ([1]; atropine sulfate therapy, contraction of the pyloric muscle often reappears afterward): 20 to 30 min
- effectiveness of treatment ([1]; intravenous injection, needs long term hospitalization): high
- effectiveness rate of treatment ([1]; oral administration): less than 50%
- Duration of vomiting (onset of action) after the initiation of the treatment [2]: 5 ± 2 days
- duration of hospitalization [2]: 9 ± 2 days
